In paper PMC11589570, “Critical assessment of LC3/GABARAP ligands used for degrader development and ligandability of LC3/GABARAP binding pockets” (Nature Communications, 2024):
Several values for one entry are separate records, joined by “and”; a condition that tells them apart may be missing. Equal values may be shown once.

How the values were obtained:
[1] = tested on: U2OS cells; assay: Cell growth assay (IncuCyte confluence over 72 h); assay type: cell-based; set-up: key to U2OS cell growth: % of well area covered by cells (confluence)
Procedure, shortened: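 U2OS cells were grown in DMEM with 10% FBS for 24 h before treatment. Confluence was then tracked by IncuCyte phase imaging over 72 h and expressed as % of well area covered by cells. Each point is the average of three wells.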

[2] = tested on: LC3/GABARAPs (human Atg8 family); assay: FP assay with Cy5-labelled p62 LIR tracer, statements on all LC3/GABARAPs; assay type: binding
[3] = target: LC3A (Homo sapiens, UniProt Q9H492); assay: Isothermal titration calorimetry (ITC); assay type: binding; conditions: LC3A
[4] = target: T1, LC3B (Homo sapiens, UniProt Q9GZQ8); assay: FP assay with 10O5- and 8F20-based dye-linked tracers 16 and 17; conditions: LC3B; compound 3 for tracer 17, compound 4 for tracer 16
Description: The only experimental difference in our FP assay setup was the addition of 0.05% Tween-20, which is routinely used[27] to suppress unspecific binding of compounds to proteins.
Fluorescence polarization assay utilizing tracers 16 and 17 for interaction studies with LC3A
(upper panels) and LC3B (lower panels). The left panels depict protein titration measurements
detergent in the buffer to suppress unspecific binding. Middle panels depict displacement
Data were collected in technical
triplicates with error bars expressing the SD (n=3).

[5] = target: T1, LC3B; assay: FP assay with Cy5-labelled p62 LIR tracer (protein titration and tracer displacement); assay type: binding; conditions: LC3B

Compound: O=C1Nc2ccc(I)cc2C1=Cc1cc(Br)c(O)c(Br)c1 [compound 4]
- U2OS cell growth ([1]; 100 nM, time 0 h, listed as 10O5): 16.9992 and 15.7304 and 22.471
- U2OS cell growth ([1]; 100 nM, time 2 h, listed as 10O5): 30.0536 and 23.3693 and 30.9556
- U2OS cell growth ([1]; 100 nM, time 4 h, listed as 10O5): 26.8783 and 18.0548 and 26.389
- U2OS cell growth ([1]; 100 nM, time 6 h, listed as 10O5): 32.427 and 24.5344 and 29.4691
- U2OS cell growth ([1]; 500 nM, time 0 h, listed as 10O5): 22.1626 and 25.7214 and 24.1436
- U2OS cell growth ([1]; 500 nM, time 2 h, listed as 10O5): 30.4879 and 29.4429 and 31.5602
- U2OS cell growth ([1]; 500 nM, time 4 h, listed as 10O5): 27.0048 and 26.6361 and 29.202
- U2OS cell growth ([1]; 500 nM, time 6 h, listed as 10O5): 26.7875 and 33.8054 and 33.8287
- U2OS cell growth ([1]; 500 nM, time 8 h): 33.7413
- U2OS cell growth ([1]; 500 nM, time 10 h): 39.0222
- U2OS cell growth ([1]; 1 uM, time 0 h, listed as 10O5): 28.8978 and 24.3384 and 24.2638
- U2OS cell growth ([1]; 1 uM, time 2 h, listed as 10O5): 33.9341 and 25.1214 and 23.3142
- U2OS cell growth ([1]; 1 uM, time 4 h, listed as 10O5): 34.8975 and 25.1189 and 23.4121
- U2OS cell growth ([1]; 1 uM, time 6 h, listed as 10O5): 36.2035 and 30.6761 and 30.4629
- U2OS cell growth ([1]; 1 uM, time 8 h, listed as 10O5): 37.0589 and 28.0551 and 29.5538
- U2OS cell growth ([1]; 1 uM, time 10 h, listed as 10O5): 40.6527 and 32.3336 and 34.2928
- U2OS cell growth ([1]; 1 uM, time 12 h, listed as 10O5): 39.0418
- U2OS cell growth ([1]; 3 uM, time 0 h, listed as 10O5): 28.8395 and 29.1487 and 34.5356
- U2OS cell growth ([1]; 3 uM, time 2 h, listed as 10O5): 33.8786 and 32.6567 and 36.3335
- U2OS cell growth ([1]; 3 uM, time 4 h, listed as 10O5): 28.2335 and 26.3394 and 40.569
- U2OS cell growth ([1]; 3 uM, time 6 h, listed as 10O5): 37.1398 and 33.8156 and 39.1483
- U2OS cell growth ([1]; 3 uM, time 8 h, listed as 10O5): 34.9068 and 36.3207 and 39.5562
- U2OS cell growth ([1]; 3 uM, time 10 h, listed as 10O5): 41.312 and 42.3386 and 42.5694
- U2OS cell growth ([1]; 3 uM, time 12 h, listed as 10O5): 40.1427
- U2OS cell growth ([1]; 5 uM, time 0 h, listed as 10O5): 31.0558 and 26.3625 and 29.5321
- U2OS cell growth ([1]; 5 uM, time 2 h, listed as 10O5): 36.0354 and 28.3396 and 34.1005
- U2OS cell growth ([1]; 5 uM, time 4 h, listed as 10O5): 37.417 and 32.4374 and 40.4577
- U2OS cell growth ([1]; 5 uM, time 6 h, listed as 10O5): 38.4528 and 33.2156 and 39.1806
- U2OS cell growth ([1]; 5 uM, time 8 h, listed as 10O5): 37.3748 and 33.0274 and 39.2246
- U2OS cell growth ([1]; 5 uM, time 10 h, listed as 10O5): 41.1433 and 35.6497 and 45.4152
- U2OS cell growth ([1]; 10 uM, time 0 h, listed as 10O5): 20.3118 and 28.5412 and 26.4263
- U2OS cell growth ([1]; 10 uM, time 2 h, listed as 10O5): 23.006 and 27.9929 and 32.8968
- U2OS cell growth ([1]; 10 uM, time 4 h, listed as 10O5): 30.6648 and 35.9437 and 41.1141
- U2OS cell growth ([1]; 10 uM, time 6 h, listed as 10O5): 29.7401 and 38.8973 and 43.1309
- U2OS cell growth ([1]; 10 uM, time 8 h, listed as 10O5): 28.0658 and 36.5966 and 41.861
- U2OS cell growth ([1]; 10 uM, time 10 h, listed as 10O5): 30.9876 and 40.5217 and 49.4843
- interaction with LC3/GABARAP family members in FP displacement assay [2]: weak interaction of 10O5 (4) with GABARAP family members
- outcome of ITC titration [3]: low solubility in the buffer system
- outcome of ITC titration ([3]; listed as 10O5): induced protein precipitation
- displacement of dye-linked tracer by parent compound [4]: no displacement
- normalized FP signal, p62 LIR tracer displacement ([5]; log10 concentration [M] -3.82391): 84.7368
- normalized FP signal, p62 LIR tracer displacement ([5]; log10 concentration [M] -4.1549): 89.2105
- normalized FP signal, p62 LIR tracer displacement ([5]; log10 concentration [M] -4.60206): 90.7895
- normalized FP signal, p62 LIR tracer displacement ([5]; log10 concentration [M] -5): 95
- normalized FP signal, p62 LIR tracer displacement ([5]; log10 concentration [M] -5.30103): 93.9474 and 101.579
- normalized FP signal, p62 LIR tracer displacement ([5]; log10 concentration [M] -5.69897): 91.0526
- normalized FP signal, p62 LIR tracer displacement ([5]; log10 concentration [M] -6.22185): 96.5789
